This is an account of results in ChEMBL document CHEMBL1914396, “Solid-state NMR analysis of interaction sites of curcumin and 42-residue amyloid β-protein fibrils” (Bioorg Med Chem, 2011).

Calls of active or inactive are those of the source. No cut-off for these calls is given here.

The nature of assay [1]: Binding affinity to [13C]-labelled amyloid beta (1 to 42) fibrils assessed as change in morphology of fibrillation at 50 uM after 1 hr using uranyl acetate dye by Transmission electron microscopy.
Assay [2] in a line: Binding affinity to [13C]-labelled at 17-21 positions of amyloid beta (1 to 42) fibrils after 48 hrs by 2D-DARR spectroscopy.
Assay [3] in a line: Binding affinity to [13C]-labelled at 17-21 positions of amyloid beta (1 to 42) fibrils by NMR spectroscopy.
Assay [4] in a line: Binding affinity to A2 of [13C]-labelled N-terminus amyloid beta (1 to 42) fibrils after 48 hrs by 2D-DARR spectroscopy.
Assay [5] is described as follows: Binding affinity to F4 of [13C]-labelled N-terminus amyloid beta (1 to 42) fibrils after 48 hrs by 2D-DARR spectroscopy.
Assay [6] is described as follows: Binding affinity to G9 of [13C]-labelled N-terminus amyloid beta (1 to 42) fibrils after 48 hrs by 2D-DARR spectroscopy.
Assay [7] is described as follows: Binding affinity to V12 of [13C]-labelled N-terminus amyloid beta (1 to 42) fibrils after 48 hrs by 2D-DARR spectroscopy.

Turning to `COc1cc(/C=C/C(=O)CC(=O)/C=C/c2ccc(O)c(OC)c2)ccc1O`, the outcome in assay [1], in assay [4], in assay [5] and in assay [6] was inactive. Moreover, the result in assay [2], in assay [3] and in assay [7] was Active.
